The record followed here is US9675591B2, “Methods for treating seizure disorders and pain” (THE REGENTS OF THE UNIVERSITY OF CALIFORNIA, priority 2013, dated 2017).

One data set relates to MES-induced seizures. The data set can be described thus: Maximal electroshock (MES) seizure test, rats (ASP, methylcellulose suspension). It is filed as in vivo. As to conditions: for ED50: Rattus norvegicus, read-out: ED50, seizure protection in the MES test. Here is the method:
SKA-19 was tested under the auspices of the National Institutes of Health's Anticonvulsant Screening Program (ASP). Experiments were performed in male albino CF (Carworth Farms) No. 1 mice or Sprague-Dawley rats according to the established protocols of the ASP (White et al., 2002). SKA-19 was suspended in 0.5% methylcellulose and administered in a volume that permits accuracy of dosage without excessively contributing to total body fluid (0.01 ml/g body weight for mice and 0.04 ml/10 g body weight for rats).
Animals received an electrical stimulus of 0.2 s duration (50 mA in mice and 150 mA in rat at 60 Hz) delivered via corneal electrodes primed with an electrolyte solution containing 0.5% tetracaine. Animals were restrained by hand and released immediately after stimulation to permit observation of the seizure throughout its entire course. In the initial screens to identify anticonvulsant activity mice were tested at 30 minutes and 4 hours following doses of 3, 10, 30, 100 and 300 mg/kg of SKA-19 and rats tested at time intervals between 0.25 and 4 hours following a standard oral dose of 30 mg/kg. In the subsequent, more quantitative tests at least four doses of SKA-19 (n=8 per dose) were tested at the previously determined time of peak effect (TPE). Abolition of hindlimb tonic extension indicates the test compound's ability to inhibit MES-induced seizure spread. Tonic extension is considered abolished if the hind limbs are not fully extended at 180° with the body.
A general note: Protection in the maximal electroshock model is a classic sign of anticonvulsant action.

In data set [1] the test system is pentylenetetrazole-induced seizures. The data set can be described thus: Subcutaneous Metrazol seizure test (scMET). It is filed as in vivo. Here is the method: A dose of subcutaneous pentylenetetrazole (Metrazole, MET) which induces convulsions in 97% of animals (CD97: 85 mg/kg mice or 56.4 mg/kg rats) was injected into a loose fold of skin at the neck. Animals were placed in isolation cages and observed for 30 min for the occurrence of clonic spasms persisting for at least 5 s.

A further data set has as its system sound-induced seizures. As to the kind of experiment: Frings audiogenic seizure (AGS)-susceptible mouse model. The data set is classed as in vivo, mice. As to conditions: ip, 2 h, read-out: ED50, protection from sound induced seizures. Here is the method:
Frings audiogenic seizure (AGS)-susceptible mice are genetically susceptible to sound-induced seizures (Frings et al., 1953). A colony of AGS mice is maintained by the ASP at the University of Utah. Groups of 8 female mice (weighing 18-25 g) were treated i.p. with increasing doses of SKA-19. At the TPE in the MES test, mice were exposed to a sound stimulus of 110 decibels (11 KHz) delivered for 20 s.

For data set [2], the system named is cultured hippocampal neurons. The data set can be described thus: Synchronous intracellular Ca2+ oscillations (FLIPR). It is filed as cell-based, mouse. As to conditions: for effect on picrotoxin (PTX) induced Ca2+ oscillations: added 10 min before PTX. Here is the method:
Animals were treated humanely and with regard for alleviation of suffering according to protocols approved by the Institutional Animal Care and Use Committee of the University of California, Davis. Hippocampal neuron cultures were dissociated from hippocampi dissected from C57Bl/6J mouse pups at postnatal day 0-1 and maintained in Neurobasal complete medium (Neurobasal medium supplemented with NS21, 0.5 mM L-glutamine, HEPES) with 5% fetal bovine serum. For Ca^2+ imaging studies using FLIPR, dissociated hippocampal cells were plated onto poly-L-lysine coated clear-bottom, black wall, 96-well imaging plate (BD, Franklin Lakes, N.J., USA) at a density of 0.8×10^5/well. The medium was changed twice a week by replacing half the volume of culture medium in the well with serum-free Neurobasal complete medium. The neurons were maintained at 37° C. with 5% CO2 and 95% humidity.
Hippocampal neurons 14-17 DIV were used for simultaneous measurements of intracellular Ca^2+ transients in all wells of a 96-well plate as described previously (Cao et al., 2012). After aspiration, the cells were incubated with 4 μM Fluo-4 in Locke's buffer containing 0.5 mg/ml bovine serum albumin for 1 h at 37° C. The plates were then transferred to the FLIPR (Molecular Devices, Sunnyvale, Calif., USA) cell plate stage. After 4 min of baseline recordings, Ca^2+ signals were then recorded for 10 min in the presence or absence of SKA-19 followed by addition of the Ca^2+ enhancing agents 4-AP or PTX, and the intracellular Ca^2+ concentration ([Ca^2+]i) was monitored for an additional 30 min. Ca^2+-enhancing agents triggered an immediate rise in [Ca^2+]i that was quantified by determining the area under the curve of the Fluo-4 arbitraiy fluorescence units for a duration of 5 min following agent addition.
Hippocampal neurons between 13-17 days in vitro (DIV) were used to investigate how Ca^2+ enhancing agent alters synchronous Ca^2+ oscillations that normally occur in healthy neurons at this developmental stage. This method permits simultaneous measurements of intracellular Ca^2+ transients in all wells of a 96-well plate as described previously (Cao et al., 2012). Baseline recordings were acquired in Locke's buffer (8.6 mM HEPES, 5.6 mM KCl, 154 mM NaCl, 5.6 mM glucose, 1.0 mM MgCl2, 2.3 mM CaCl2, and 0.0001 mM glycine, pH 7.4) for 10 min in presence or absence of SKA-19 followed by addition of the Ca^2+ enhancing agents 4-aminopyridine (4-AP) or picrotoxin using a programmable 96-channel pipetting robotic system, and the intracellular Ca^2+ concentration ([Ca^2+]i) was monitored for an additional 30 min. Unless otherwise indicated, pharmacological interventions were introduced 10 min prior to Ca^2+ enhancing agent. Ca enhancing agent triggered an immediate rise in [Ca^2+]i that was quantified by determining the area under the curve (AUC) of the Fluo-4 arbitrary fluorescence units for a duration of 5 min following Ca^2+ enhancing agent addition. Ca^2+ enhancing agent also altered the frequency and amplitude of neuronal synchronous Ca^2+ oscillations, which were analyzed during the 10 min period after addition of Ca^2+ enhancing agent […].

In the next data set the target is KCa2.1 (Homo sapiens (Human), UniProt Q92952). The data set can be described thus: Whole-cell patch-clamp, KCa2.1. It is filed as cell-based. Here is the method: HEK-293 or COS-7 cells stably expressing hKCa2.1, rKCa2.2, and hKCa2.3 have been described previously (Sankaranarayanan et al., 2009). Cells were held at −80 mV and KCa currents elicited by dialysis with a K^+ aspartate based internal containing 250 nM free Ca^2+ (pH 7.2, 290 mOsm, pipette resistance 1.5 MΩ). To reduce currents from native chloride channels, Na^+ aspartate Ringer was used as an external solution. KCa2 currents were recorded with 200-ms voltage ramps from −120 to +40 mV applied every 10 s, and the fold increase of slope conductance at −80 mV by drug was taken as a measure of channel activation. Data analysis, fitting, and plotting were performed with IGOR-Pro (Wavemetrics, Lake Oswego, Oreg., USA) and Origin 9.0 (OriginLab, Northampton, Mass., USA).

What is called ED50 is the dose at which the effect has come halfway, by size or by number of responders. The EC50 is the concentration at which the effect is half-maximal.

SMILES strings stand for the structures. Several values for one entry are separate records, joined by “and”; a condition that tells them apart may be missing. Equal values may be shown once. Entries after “also recorded” stand apart in the source; their conditions may differ. Read-outs that look alike come from different tables or passages of the source.

In the case of `Nc1nc2ccc(SC(F)(F)F)cc2s1` [SKA-19, 6-((trifluoromethyl)thio)benzo[d]thiazol-2-amine], the ED50 in the data set with MES-induced seizures (ip, 1 h time point) stood at 1.6 mg/kg; in the data set on MES-induced seizures (oral (SKA-19: 4 h time point)), 2.33 mg/kg; in the data set on sound-induced seizures, 2.15 mg/kg. The “protective index PI (TD50/ED50)” value with MES-induced seizures (i.p.) was 8.9; with MES-induced seizures (oral), ~33 and 33.2. In addition, in the data set on MES-induced seizures (oral 30 mg/kg, 0.25, 0.5, 1, 2 and 4 h), the “protection from MES induced seizures, initial screen” value is recorded as “fully protected”. Also, the “death in the scMET test” value in data set [1] (300 mg/kg) is given as “one animal treated with 300 mg/kg died”. In addition, in data set [1] (30 and 100 mg/kg), the “protection in the scMET test” value was “did not provide any protection”. Moreover, in data set [1] (mouse, in vivo), the “activity in the scMET test” value is “no significant activity”. Further, the entries for the “effect on spontaneous Ca2+ oscillations” value in data set [2] (SKA-19 1 μM or less) and in data set [2] (SKA-19 3 μM or more) were “did not significantly inhibit; also recorded: no effect” and “completely eliminated”, respectively. The “effect on 4-AP induced initial Ca2+ rise and oscillations” value in data set [2] (added 10 min before 4-AP) is recorded as “potently suppressed; also recorded: inhibited”. The “effect on picrotoxin (PTX) induced Ca2+ oscillations” value is on record as “potently suppressed” in data set [2] and “inhibited” in data set [2] (listed as SKA-10). Besides, at KCa2.1 (250 nM free intracellular Ca2+, read-out: EC50 or IC50, KCa2.1), the EC50 is > 100 µM. Besides, the “effect on KCa2.1 currents” value on KCa2.1 (100 and 200 μM) was “very weak effects”.
